The source of these data is patent US8242126B2, “Quinazolinedione derivatives, preparation thereof and therapeutic uses thereof” (Sanofi, priority 2007, dated 2012).

Where two headings read alike, the source gives them in different places.

As a reminder, the IC50 is the point on the concentration scale where inhibition reaches its midpoint.

Experiment [1] concerns the target T1, Human PDE7 (Homo sapiens, UniProt Q13946).
T1 construct: Human PDE7 was partially purified from the HUT-78 cell line; endogenous in cells
As to the kind of experiment: PDE7 enzymatic assay (radioactive cAMP / 5′-AMP separation by TLC on PEI cellulose). Type of experiment: biochemical. How it is done:
The ability of the compounds of formula (I) to inhibit PDE7 is measured using an enzymatic assay based on the separation of radioactive cAMP (substrate of PDE7) from the radioactive 5′-AMP (product of the enzymatic reaction) by thin layer chromatography on polyethyleneimine (PEI) cellulose, after halting the enzymatic reaction. The 5′-AMP is extracted quantitatively from the PEI cellulose and its radioactivity is measured using a liquid scintillation counter.
The inhibitory activity of the compounds of formula (I) with regard to PDE7 is represented by the inhibition constant IC50, defined as the concentration of the compound (inhibitor) tested in the assay which makes it possible to reduce the enzymatic activity of PDE7 by 50%. The lower the IC50 values, the greater the inhibitory power of the compounds.
Human PDE7 was partially purified from the HUT-78 cell line by following a method analogous to that described by Bloom and Beavo (Proc. Natl. Acad. Sci. USA, (1996) 93, 14188-14192). The enzyme preparation obtained is stored at −80° C. in a buffer comprising 20 mM of Tris-HCl (pH 7.0), 5 mM of MgCl2, 4 mM of EDTA, 1 mM of dithiothreitol and 20% of glycerol. […] The Michaelis constant (Km) of PDE7 for cAMP, measured using the radiochemical assay described below, is 21 nM.
The compounds of formula (I) to be tested as PDE7 inhibitors are dissolved in DMSO at a concentration of 10 mM. These solutions are subsequently diluted in cascade in DMSO in order to obtain solutions with the desired concentrations. The latter are subsequently diluted to one-twentieth in the assay buffer to give 5% DMSO solutions. The latter are finally diluted to one-fifth in the enzymatic assay.
The assay is carried out in 1.5 ml Eppendorf tubes comprising 40 mM of Tris-HCl (pH 7.5), 15 mM of MgCl2, 1 mM of EGTA, 0.5 mg/ml of bovine serum albumin, […] of [^3H]-cAMP (corresponding to a cAMP concentration of between 15 and 25 nM), 10 μM of rolipram and PDE7 in a final volume of 100 μl. The assay is carried out in the absence (control sample) or in the presence (treated sample) of the compounds tested as PDE7 inhibitors. The final concentration of DMSO in the assay is 2%. The reaction is initiated by addition of enzyme and the samples are maintained at ambient temperature for 30 minutes. The enzymatic dilution is adjusted so as to obtain a degree of conversion of 10 to 15%. The enzymatic reaction is halted by immersion of the stoppered Eppendorf tubes in a water bath at 100° C. for 3 minutes. Blanks (reaction halted immediately after addition of the enzyme) are included in each experiment. The samples are subsequently centrifuged at 10 000×g for 1 minute and an aliquot portion of 10 μl of supernatant is deposited 2 cm from the bottom edge of a sheet of PEI cellulose on which 10 μg of cAMP and 10 μg of 5′-AMP have been deposited beforehand. In order to facilitate the migration and to make it easier to cut out the strips of PEI cellulose comprising the 5′-AMP, which take place subsequently, 18 migration lanes with a width of 1 cm are delimited per plate by scraping the cellulose with a spatula over a width of 1 mm. The plates are developed over their entire length with a 0.30 M solution of LiCl in water by ascending chromatography. The 5′-AMP (Rf=0.20) and the cAMP (Rf=0.47) are visualized under UV light at 254 nm. The strips of PEI cellulose comprising the 5′-AMP are cut out and the nucleotide is quantitatively extracted in counting flasks with 2 ml of a solution which is 16M in formic acid and 2M in ammonium formate in water (rotary stirrer for 15 min). After addition of 10 ml of scintillation liquid (OptiPhase HiSafe 3 from Perkin-Elmer/Wallac), the radioactivity is counted using a liquid scintillation counter (model 1414, Perkin-Elmer/Wallac). Each assay is carried out in duplicate. […]

The subject of experiment [2] is PDE8. Description: PDE8 enzymatic assay equivalent to that described for PDE7. Type of experiment: biochemical.
Experiment [3] relates to CLL-PBMCs. The note with it: PBMCs of patients suffering from chronic lymphocytic leukaemia; cited from earlier work.
The test system of experiment [4] is PBMCs of normal subjects. Conditions: cited from earlier work.
The test system of experiment [5] is Human peripheral blood mononuclear cells (PBMNCs). Description: Inhibition of T cell proliferation: [3H]-thymidine incorporation in PBMNCs activated by anti-CD3 and anti-CD28. The class given is cell-based. The note with it: PBMC, 72 h + 8 h [3H]-thymidine, mean of the three experiments. How it is done: Human peripheral blood mononuclear cells (PBMNCs) were separated from the blood of healthy donors using a centrifuging gradient on a Ficoll-Paque™ Plus (GE Healthcare Bio-Sciences AB code 17-1440-03, Uppsala). A mixture of 5.0 ml of blood and 5.0 ml of phosphate buffered saline (PBS Gibco 14190) was deposited on 10.0 ml of Ficoll-Paque in a 50 ml Blue max tube (Becton Dickinson 352070) and centrifuged with 900 g for 30 min. The band of PBMNCs was withdrawn, washed in PBS and then centrifuged with 900 g for 10 minutes. Finally, the PBMNCs were suspended (2.5×10^5 cells/ml) in an RPMI 1640 complete medium+Glutamax (Gibco 61870) additivated with 10% of FCS, the complement of which has been heat inactivated, and with penicillin-streptomycin (Gibco 15140).
The PBMNCs were cultured in flat-bottomed 96-well plates, in a proportion of 0.5×10^5 cells/well in 200 μl of RPMI 1640 complete medium. The cells were activated by two monoclonal antibodies, one of anti-CD3 specificity, 20 ng/ml (Pharmingen 555329), and the other of anti-CD28 specificity, 200 ng/ml (Pharmingen 555725), in the presence of PDE7 inhibitors at five different concentrations, 10 μM, 3.3 μM, 1.1 μM, 0.36 μM and 0.12 μM, or of cyclosporin A, which acts as positive control of the halting of proliferation. […] After incubating for an additional 8 hours, the PBMNCs were collected on a Tomtec cell collector (Wallac) using a glass fibre filter (Wallac 1450-421), and incorporation of the [^3H]-thymidine in the nucleus of the cells was measured using a Microbeta 1450-Trilux (Wallac). The inhibition of the proliferation, expressed as percentage, was calculated using the following equation: 100−(cpm mean value of the cells in the presence of the compound/cpm mean value of the cells in the absence of the compound)×100. […]
On the technique in general: Dividing cells build labelled thymidine or BrdU into new DNA.

Where [6] appears, read: human PDE7 partially purified from HUT-78 cells, 10 μM rolipram present, read-out: IC50 (inhibition of PDE7).
The mark [7] stands for this setting: table comparing PDE7 and PDE8, read-out: IC50 PDE7.

T1 sequence (Q13946 whole entry): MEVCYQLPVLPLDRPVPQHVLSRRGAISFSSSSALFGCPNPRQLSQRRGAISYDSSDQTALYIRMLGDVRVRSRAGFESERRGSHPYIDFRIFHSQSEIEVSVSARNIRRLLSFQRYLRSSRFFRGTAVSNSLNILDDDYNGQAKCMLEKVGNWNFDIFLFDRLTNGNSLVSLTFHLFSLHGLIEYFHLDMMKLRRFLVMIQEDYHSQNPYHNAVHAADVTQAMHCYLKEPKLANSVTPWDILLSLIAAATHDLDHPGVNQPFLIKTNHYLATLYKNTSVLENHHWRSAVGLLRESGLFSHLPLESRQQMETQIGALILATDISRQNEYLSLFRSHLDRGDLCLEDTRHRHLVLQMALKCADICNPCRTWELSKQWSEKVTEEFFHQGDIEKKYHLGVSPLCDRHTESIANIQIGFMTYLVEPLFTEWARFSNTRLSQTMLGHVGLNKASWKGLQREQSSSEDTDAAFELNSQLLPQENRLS

`COc1ccc(Cn2c(=O)c3cc(OCCO)ccc3n(C3CCN(C=O)CC3)c2=O)cc1OC` [No. 72, 4-[3-(3,4-dimethoxybenzyl)-6-(2-hydroxyethoxy)-2,4-dioxo-3,4-dihydroquinazolin-1(2H)-yl]piperidine-1-carbaldehyde]: the IC50 in experiment [1] (setting [6]) is 89 nM.
On to `N#Cc1cc(Cn2c(=O)c3cc(OC(CF)CF)ccc3n(C3CCN(C=O)CC3)c2=O)ccc1-c1ccccc1` [No. 294, 4-({6-[2-fluoro-1-(fluoromethyl)ethoxy]-1-(1-formylpiperidin-4-yl)-2,4-dioxo-1,4-dihydroquinazolin-3(2H)-yl}methyl)biphenyl-2-carbonitrile], for which the IC50 in experiment [2] was 15 nM; in experiment [1] (setting [7]) it was 37 nM.
On to `COc1ccc(Cn2c(=O)c3cc(OC(F)F)ccc3n(C3CCN(C=O)CC3)c2=O)cc1OC` [No. 111, 4-[6-(difluoromethoxy)-3-(3,4-dimethoxybenzyl)-2,4-dioxo-3,4-dihydroquinazolin-1(2H)-yl]piperidine-1-carbaldehyde], for which the IC50 in experiment [1] (setting [6]) was determined as 6.7 nM.
For `Cc1ccc([N+](=O)[O-])cc1S(=O)(=O)N(C)C` [BRL-50481], in experiment [3], the “apoptosis of CLL-PBMCs” value was “induces in a dose-dependent way the apoptosis”. Also, in experiment [4], the “effect on PBMCs of normal subjects” value is on record as “without effect”.
As to `COc1ccc(Cn2c(=O)c3cc(OC(C)C#N)ccc3n(C3CCN(C=O)CC3)c2=O)cc1OC` (stereo not drawn) [No. 1, 2-{[3-(3,4-dimethoxybenzyl)-1-(1-formylpiperidin-4-yl)-2,4-dioxo-1,2,3,4-tetrahydroquinazolin-6-yl]oxy}propanenitrile], the IC50 in experiment [5] was found to be 400 nM.
Regarding `COc1ccc(Cn2c(=O)c3cc(CNC(C)=O)ccc3n(C3CCN(C=O)C3)c2=O)cc1OC` (stereo not drawn) [No. 77, N-{[3-(3,4-dimethoxybenzyl)-1-(1-formylpyrrolidin-3-yl)-2,4-dioxo-1,2,3,4-tetrahydroquinazolin-6-yl]methyl}acetamide], in experiment [1] (setting [6]), the IC50 is 820 nM.
The same measure, in the same setting: to `COc1ccc(Cn2c(=O)c3c(Cl)cc(Cl)cc3n(C3CCN(C=O)CC3)c2=O)cc1OC` [No. 97, 4-[5,7-dichloro-3-(3,4-dimethoxybenzyl)-2,4-dioxo-3,4-dihydroquinazolin-1(2H)-yl]piperidine-1-carbaldehyde] belongs 61 nM.
With `COc1ccc(Cn2c(=O)c3cc(OC(CF)CF)ccc3n(C3CCN(C=O)CC3)c2=O)cc1OC` [No. 11, 4-[3-(3,4-dimethoxybenzyl)-6-[2-fluoro-1-(fluoromethyl)ethoxy]-2,4-dioxo-3,4-dihydroquinazolin-1(2H)-yl]piperidine-1-carbaldehyde], the IC50 in experiment [5] was found to be 900 nM; in experiment [2], 140 nM; in experiment [1] (setting [6]), 39 nM.
Turning to `COc1cc(Cn2c(=O)c3cc(OC(CF)CF)ccc3n(C3CCN(C=O)CC3)c2=O)ccc1OCC(=O)N1CCCCC1` [No. 251, 4-{6-[2-fluoro-1-(fluoromethyl)ethoxy]-3-[3-methoxy-4-(2-oxo-2-(piperidin-1-yl)ethoxy)benzyl]-2,4-dioxo-3,4-dihydroquinazolin-1(2H)-yl}piperidine-1-carbaldehyde], in experiment [1] (setting [7]), the IC50 turned out to be 46 nM.
On to `COc1ccc(Cn2c(=O)c3cc(OCC(F)F)ccc3n(C3CCN(C=O)CC3)c2=O)cc1OC` [No. 16, 4-[6-(2,2-difluoroethoxy)-3-(3,4-dimethoxybenzyl)-2,4-dioxo-3,4-dihydroquinazolin-1(2H)-yl]piperidine-1-carbaldehyde], for which the IC50 is 1300 nM in experiment [5] and 15 nM in experiment [1] (setting [6]).
